US5322850A, “Antiallergic piperidine derivatives of benzimidazole” (Fabrica Espanola de Productos Quimicos y Farmaceuticos, S.A., priority 1992, dated 1994)
Values joined by “and” are separate entries in the source; they are usually repeats but may differ in a detail not shown here. Equal values may be shown once.

What was measured:
CNS = experiment: Preliminary study similar to Irwin's test in mice: effect on CNS; assay type: in vivo; set-up: key: --: If no effects were detected, no figures are shown
Experimental: A preliminary study similar to Irwins's test in mice was carried out at doses of 100 and 300 mg/kg at 1, 2, 3, 4 and 24 hours after the treatment. As reference ketotifene was used.

H1 [1] = experiment: H1-antihistaminic activity in vivo: vascular permeability increase induced by histamine in rats; set-up: species or system rat (female Wistar)
Experimental: H1 -antihistaminic activity in vivo: Vascular permeability increase induced by histamine in rats.
Female Wistar rats (120-150 g) were used. They were fasted for 18 hours prior to the assay. […] 30 min after the dye injection, animals were sacrificed and the skin was removed. The extravasated dye sites were extracted with formamide and the dye spectrophotometrically evaluated.

H1 [2] = biological target: H1 (Cavia porcellus, UniProt P31389); experiment: H1-antihistaminic activity in vitro: histamine-induced contractions of isolated guinea-pig ileum; settings: pH 7.4, 37° C., 20 min after antagonist, (n) given
Chain of H1 (Cavia porcellus, UniProt P31389) (P31389 whole entry): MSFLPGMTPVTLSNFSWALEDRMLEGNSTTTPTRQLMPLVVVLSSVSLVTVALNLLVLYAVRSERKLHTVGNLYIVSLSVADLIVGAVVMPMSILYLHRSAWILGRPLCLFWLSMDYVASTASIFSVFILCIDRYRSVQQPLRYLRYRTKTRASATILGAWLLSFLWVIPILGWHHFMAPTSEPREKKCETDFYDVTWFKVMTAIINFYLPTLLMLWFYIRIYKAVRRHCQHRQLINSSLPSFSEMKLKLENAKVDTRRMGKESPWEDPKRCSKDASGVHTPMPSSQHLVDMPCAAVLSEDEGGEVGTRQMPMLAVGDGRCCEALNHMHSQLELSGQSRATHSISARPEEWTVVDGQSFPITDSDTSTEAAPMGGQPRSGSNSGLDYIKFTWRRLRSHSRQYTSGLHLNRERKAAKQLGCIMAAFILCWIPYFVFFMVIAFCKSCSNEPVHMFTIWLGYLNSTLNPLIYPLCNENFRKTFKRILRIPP
Experimental: H1 -antihistaminic activity in vitro: Histamine-induced contractions of isolated guinea-pig ileum.
Distal ileum was obtained from male albino guinea pig (300-500 g). All animals were fasted overnight and killed by cervical dislocation and then exsanguinated. […] The tissue was washed by upward displacement of the bathing fluid. With an effective 1.2 g loading tension, the ileum was kept for 45 min (stabilization period). An accumulative dose-response curve for histamine was isotonically recorded with increasing concentrations and the tissue, after washing with Tyrode solution, was allowed to equilibrate. Twenty minutes later a second concentration-response curve was obtained previous addition of different concentrations of antagonist drugs. The results were calculated from the concentration-response curves for histamine at each drug concentration. All the concentrations were tested 2 to 4 times.

[3] = test system: homologous passive cutaneous anaphylaxis (PCA); experiment: Antiallergic activity in vivo: vascular permeability increase induced by 48 hours homologous passive cutaneous anaphylaxis (PCA) in rats; set-up: species or system rat (female Wistar)
Experimental: Antiallergic activity in vivo: Vascular permeability increase induced by 48 hours homologous passive cutaneous anaphylaxis (PCA) in rats. Female Wistar rats (120-150 g) were used. They were sensitized passively by intradermic injections of homologous ovoalbumin antiserum on both sides of the middle shaved-back line of the rat. Forty-eight hours later each test compound was administered orally at doses of 1 mg/kg (5 mg/kg when R^1 is a methyl group) and 1 h later PCA reaction was induced by iv injection of Evans blue solution and ovoalbumin in PSS solution. The animals were sacrificed 30 minutes after the dye injection and the skin was removed. The extravasated dye sites were extracted with formamide and the dye spectrophotometrically evaluated.

[4] = 100 mg/kg, 1, 2, 3, 4 and 24 hours
[5] = 300 mg/kg, 1, 2, 3, 4 and 24 hours
[6] = rat, oral, 1 mg/kg, 1 hour before histamine
[7] = rat, oral, 1 mg/kg, 1 h before PCA reaction

Structure (SMILES)	Convulsions (CNS; [4])	Death (CNS; [4])	Hypothermia (CNS; [4])	Loss of pinneal reflex (CNS; [4])	Loss of right-time reflex (CNS; [4])	Palpebral Ptosis (CNS; [4])	Spontaneous Activity decrease (CNS; [4])	Convulsions (CNS; [5])	Death (CNS; [5])	Hypothermia (CNS; [5])	Loss of pinneal reflex (CNS; [5])	Loss of right-time reflex (CNS; [5])	Palpebral Ptosis (CNS; [5])	Spontaneous Activity decrease (CNS; [5])	Inhibition of the increase of vascular permeability by Histamine (H1 [1]; [6]) [%]	pD'2 (H1 [2])	Inhibition of the increase of vascular permeability by P.C.A. [3, 7] [%]	Spontaneous Activity decrease (CNS; 300 mg/kg, 1, 2, 3, 4 and 24 hours, 300 mg/kg)	Inhibition of the increase of vascular permeability by Histamine (H1 [1]; po, 5 mg/kg) [%]	Inhibition of the increase of vascular permeability by P.C.A. ([3]; po, 5 mg/kg) [%]
CCOCCn1c(C2CCN(Cc3ccc(C(C)(C)C)cc3)CC2)nc2ccccc21 [1 CH2 CH3]	--	--	--	--	--	--	--	4/4	--	--	--	--	--	4/4	70	7.08	47			
CC(C)OCCn1c(C2CCN(Cc3ccc(C(C)(C)C)cc3)CC2)nc2ccccc21 [1 CH(CH3)2, 2-[1-((4-(1,1-dimethylethyl)phenyl)methyl)piperidin-4-yl]-1-[(2-(1-methylethoxy)ethyl)]-1H-benzimidazole]	--	--	--	--	--	--	--	--	--	--	--	--	--	--	50	7.30	40			
CCOCCn1c(C2CCN(CCc3ccc(C(C)(C)C)cc3)CC2)nc2ccccc21 [2 CH2 CH3, 2-[1-(2-(4-(1,1-dimethylethyl)-phenyl)ethyl)piperidin-4-yl]-1-(2-ethoxyethyl)-1H-benzimidazole]	--	--	--	--	--	--	--	--	--	--	--	--	--		60	7.52	40	-- and 2/4		
COc1ccc(CCN2CCC(Nc3nc4ccccc4n3Cc3ccc(F)cc3)CC2)cc1 [Astemizole, reference compound]																	38			
CC(C)OCCn1c(C2CCN(CCc3ccc(C(C)(C)C)cc3)CC2)nc2ccccc21 [2 CH(CH3)2, 2-[1-(2-(4-(1,1-dimethylethyl)-phenyl)ethyl)piperidin-4-yl]-1-[2-(1-methylethoxy)ethyl]-1H-benzimidazole]															25	7.00	30			
COCCn1c(C2CCN(Cc3ccc(C(C)(C)C)cc3)CC2)nc2ccccc21 [1 CH3, 2-[1-((4-(1,1-dimethylethyl)phenyl)methyl)piperidine-4-yl]-1-(2-methoxyethyl)-1H-benzimidazole]	--	--	2/4	--	--	--	3/4	4/4	4/4	4/4	4/4	4/4	4/4	4/4		6.75			70	70
CC(C)(C)c1ccc(C(O)CCCN2CCC(C(O)(c3ccccc3)c3ccccc3)CC2)cc1 (stereo not shown) [Terfenadine, reference compound]															20		37			
CN1CCC(=C2c3ccccc3CC(=O)c3sccc32)CC1 [Ketotifene, reference compound]	--	--	--	--	--	--	--	--	--	1/4	--	1/4	1/4	2/4						
